Key:
[1] = target: T1, Cholecystokinin receptor type A (Rattus norvegicus, UniProt P30551); assay: Binding affinity towards CCK-A receptor in rat pancreas using [125I]Bolton-Hunter CCK-8 as radioligand; Value ranges from 11-16 uM; type: tissue-based
T1 sequence (P30551 whole entry): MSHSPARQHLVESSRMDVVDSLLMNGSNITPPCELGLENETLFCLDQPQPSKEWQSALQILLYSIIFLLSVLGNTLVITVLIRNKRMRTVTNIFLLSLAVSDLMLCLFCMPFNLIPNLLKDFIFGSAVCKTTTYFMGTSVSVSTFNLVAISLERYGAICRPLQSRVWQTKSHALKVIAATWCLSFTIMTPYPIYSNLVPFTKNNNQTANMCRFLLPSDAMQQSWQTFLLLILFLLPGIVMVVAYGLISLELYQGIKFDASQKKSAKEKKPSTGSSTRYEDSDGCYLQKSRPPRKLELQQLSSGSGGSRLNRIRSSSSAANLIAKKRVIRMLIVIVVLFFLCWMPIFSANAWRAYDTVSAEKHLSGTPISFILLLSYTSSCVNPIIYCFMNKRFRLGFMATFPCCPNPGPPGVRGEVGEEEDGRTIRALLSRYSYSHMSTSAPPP

[2] = target: T2, Substance-P receptor (Cavia porcellus, UniProt P30547); assay: Binding affinity towards NK-1 receptor in guinea pig cerebral cortex using [125I]-Bolton-Hunter substance P as radioligand; Value ranges from 7.3-8.8 uM; type: tissue-based
T2 sequence (P30547 whole entry): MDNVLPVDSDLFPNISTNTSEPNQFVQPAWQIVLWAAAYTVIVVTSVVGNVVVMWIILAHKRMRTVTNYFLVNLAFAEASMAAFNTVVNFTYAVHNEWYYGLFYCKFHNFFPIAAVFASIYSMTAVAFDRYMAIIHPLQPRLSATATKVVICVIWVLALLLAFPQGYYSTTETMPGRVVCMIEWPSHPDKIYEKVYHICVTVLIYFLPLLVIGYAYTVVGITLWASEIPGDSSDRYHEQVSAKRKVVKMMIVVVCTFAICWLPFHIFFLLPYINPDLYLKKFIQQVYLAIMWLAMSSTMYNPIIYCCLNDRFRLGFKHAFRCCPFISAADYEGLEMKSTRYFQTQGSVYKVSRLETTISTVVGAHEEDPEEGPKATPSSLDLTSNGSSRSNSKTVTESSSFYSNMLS

[3] = target: T3, Neuromedin-K receptor (Cavia porcellus, UniProt P30098); assay: Binding affinity towards Tachykinin receptor 3 in guinea pig cerebral cortex using [3H]senktide as radioligand; Inactive (>>10 uM); type: tissue-based
T3 sequence (P30098 whole entry): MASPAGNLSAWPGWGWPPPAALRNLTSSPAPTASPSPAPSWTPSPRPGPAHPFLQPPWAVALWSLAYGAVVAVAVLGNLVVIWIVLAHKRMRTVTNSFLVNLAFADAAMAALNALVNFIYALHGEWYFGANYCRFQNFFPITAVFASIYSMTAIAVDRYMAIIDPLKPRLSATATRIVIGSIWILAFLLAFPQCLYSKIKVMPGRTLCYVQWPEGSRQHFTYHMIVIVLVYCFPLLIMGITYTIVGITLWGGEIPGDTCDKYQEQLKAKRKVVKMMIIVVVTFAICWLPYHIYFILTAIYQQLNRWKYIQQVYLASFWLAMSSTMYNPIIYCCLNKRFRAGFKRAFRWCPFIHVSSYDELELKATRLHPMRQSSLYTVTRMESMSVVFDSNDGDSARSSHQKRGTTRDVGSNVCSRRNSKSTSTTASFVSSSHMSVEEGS

[4] = target: T4, Substance-K receptor (Mesocricetus auratus, UniProt P51144); assay: Binding affinity towards Tachykinin receptor 2 in hamster urinary bladder using [125I]-Neurokinin A as radioligand; Inactive (>>10 uM); type: tissue-based
T4 sequence (P51144 whole entry): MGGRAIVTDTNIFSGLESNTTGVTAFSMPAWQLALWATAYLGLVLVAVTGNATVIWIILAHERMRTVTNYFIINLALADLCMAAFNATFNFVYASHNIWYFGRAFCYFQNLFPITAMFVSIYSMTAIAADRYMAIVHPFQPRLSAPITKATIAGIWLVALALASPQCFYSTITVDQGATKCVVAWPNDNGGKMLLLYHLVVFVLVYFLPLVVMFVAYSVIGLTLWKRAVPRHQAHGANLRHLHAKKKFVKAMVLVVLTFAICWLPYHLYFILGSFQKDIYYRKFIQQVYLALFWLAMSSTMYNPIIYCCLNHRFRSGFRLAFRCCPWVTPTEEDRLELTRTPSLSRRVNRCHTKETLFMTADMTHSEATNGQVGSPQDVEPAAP

[5] = target: T5, Gastrin/cholecystokinin type B receptor (Mus musculus, UniProt P56481); assay: Binding affinity towards CCK-B receptor in mouse cerebral cortex using [125I]Bolton-Hunter CCK-8 as radioligand; Inactive (>>10 uM); type: tissue-based
T5 sequence (P56481 whole entry): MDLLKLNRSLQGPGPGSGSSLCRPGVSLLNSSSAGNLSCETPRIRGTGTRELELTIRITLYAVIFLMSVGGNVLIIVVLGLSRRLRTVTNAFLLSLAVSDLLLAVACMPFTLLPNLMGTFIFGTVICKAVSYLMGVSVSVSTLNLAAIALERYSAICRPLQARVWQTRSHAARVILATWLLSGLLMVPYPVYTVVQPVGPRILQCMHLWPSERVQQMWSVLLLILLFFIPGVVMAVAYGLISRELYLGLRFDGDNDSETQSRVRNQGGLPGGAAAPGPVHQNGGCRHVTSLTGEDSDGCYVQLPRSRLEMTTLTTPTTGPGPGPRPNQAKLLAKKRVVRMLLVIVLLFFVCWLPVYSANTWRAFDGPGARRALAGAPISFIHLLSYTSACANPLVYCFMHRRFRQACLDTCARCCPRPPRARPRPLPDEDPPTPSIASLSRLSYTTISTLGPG

[6] = target: T2, Substance-P receptor; assay: Binding affinity towards NK-1 receptor in guinea pig cerebral cortex using [125I]Bolton-Hunter substance P as radioligand; Inactive (>>10 uM); type: tissue-based
[7] = target: T4, Substance-K receptor; assay: Binding affinity towards Tachykinin receptor 2 in hamster urinary bladder using [125I]neurokinin A as radioligand; Value ranges from 2.6-11 uM
[8] = target: T1, Cholecystokinin receptor type A; assay: Binding affinity towards CCK-A receptor in rat pancreas using [125I]Bolton-Hunter CCK-8 as radioligand; Value ranges from 4.7-7.1 uM; type: tissue-based
[9] = target: T5, Gastrin/cholecystokinin type B receptor; assay: Binding affinity towards CCK-B receptor in mouse cerebral cortex using [125I]Bolton-Hunter CCK-8 as radioligand; Value ranges from 7.8-9.3 uM; type: tissue-based
[10] = target: T1, Cholecystokinin receptor type A; assay: Binding affinity towards CCK-A receptor in rat pancreas using [125I]Bolton-Hunter CCK-8 as radioligand; Value ranges from 12-20 uM; type: tissue-based
[11] = target: T3, Neuromedin-K receptor; assay: Binding affinity towards Tachykinin receptor 3 in guinea pig cerebral cortex using [3H]senktide as radioligand; Value ranges from 5.8-14u M; type: tissue-based
[12] = target: T4, Substance-K receptor; assay: Binding affinity towards Tachykinin receptor 2 in hamster urinary bladder using [125I]neurokinin A as radioligand; Value ranges from 4.6-9.0 uM
[13] = target: T1, Cholecystokinin receptor type A; assay: Binding affinity towards CCK-A receptor in rat pancreas using [125I]Bolton-Hunter CCK-8 as radioligand; Value ranges from 3.3-5.4 uM; type: tissue-based
[14] = target: T5, Gastrin/cholecystokinin type B receptor; assay: Binding affinity towards CCK-B receptor in mouse cerebral cortex using [125I]Bolton-Hunter CCK-8 as radioligand; Value ranges from 9.8-25 uM; type: tissue-based
[15] = target: T1, Cholecystokinin receptor type A; assay: Binding affinity towards CCK-A receptor in rat pancreas using [125I]Bolton-Hunter CCK-8 as radioligand; Value ranges from 3.5-4.6 uM; type: tissue-based
[16] = target: T1, Cholecystokinin receptor type A; assay: Binding affinity towards CCK-A receptor in rat pancreas using [125I]Bolton-Hunter CCK-8 as radioligand; Value ranges from 4.1-6.4 uM; type: tissue-based
[17] = target: T3, Neuromedin-K receptor; assay: Binding affinity towards Tachykinin receptor 3 in guinea pig cerebral cortex using [3H]senktide as radioligand; Value ranges from 8.2-9.4 uM; type: tissue-based

Row | IC50 [3] | IC50 [4] | IC50 [5] | IC50 [6] | Structure (SMILES) | other results
1 | Not Active |  |  | Not Active | O=C1CCN(C(=O)CCc2c[nH]c3ccccc23)CC1Cc1ccccc1 (stereo unspecified) | IC50 [7]: 6.9 µM
2 |  |  | Not Active | Not Active | O=C1CCN(Cc2ccccc2)CC1Cc1c[nH]c2ccccc12 (stereo unspecified) | IC50 [10]: 16 µM; IC50 [11]: 10 µM; IC50 [12]: 6.8 µM
3 |  | Not Active |  | Not Active | OC1CCN(Cc2ccccc2)C[C@@H]1Cc1c[nH]c2ccccc12 (stereo partly specified) | IC50 [17]: 8.8 µM

More lines, now with the values behind:

Row | Structure (SMILES) | IC50 [3] | IC50 [4] | IC50 [5] | IC50 [6] | other results
4 | O=C1CCN(C(=O)OCc2ccccc2)CC1Cc1ccccc1 (stereo unspecified) | Not Active | Not Active | Not Active |  | IC50 [1]: 13 µM; IC50 [2]: 8.1 µM
5 | CCOP(=O)(OCC)OC1=CCN(Cc2ccccc2)CC1Cc1cn(C(=O)OC(C)(C)C)c2ccccc12 (stereo unspecified) | Not Active | Not Active |  | Not Active | IC50 [8]: 5.5 µM; IC50 [9]: 8.5 µM
6 | O=C1[C@H](Cc2c[nH]c3ccccc23)CN(Cc2ccccc2)C[C@@H]1Cc1c[nH]c2ccccc12 | Not Active | Not Active |  | Not Active | IC50 [13]: 4.1 µM; IC50 [14]: 15 µM
7 | O=C1C(Cc2c[nH]c3ccccc23)CN(Cc2ccccc2)C[C@@H]1Cc1c[nH]c2ccccc12 (stereo partly specified) | Not Active | Not Active | Not Active | Not Active | IC50 [15]: 4 µM
8 | CC(C)(C)OC(=O)n1cc(CC2CN(Cc3ccccc3)CCC2O)c2ccccc21 (stereo unspecified) | Not Active | Not Active | Not Active | Not Active | IC50 [16]: 5.2 µM

Reference: ChEMBL document CHEMBL1127244, “Alternative strategies towards the identification of chemical lead compounds by rational design” (Bioorg Med Chem Lett, 1994)
